Assay results as given in patent publication US10709907B2, “Taurine and aloe synergistic anti-irritant compositions and methods” (Colgate-Palmolive Company, priority 2016, dated 2020).

Experiments:
[1] = test system: IL-1α release, 3D EpiDerm skin models (SIT-200 skin irritation model); experiment: Irritation Assay (IL-1α Release Assay) by ELISA; type: cell-based, human; details: untreated Control = 100
Excerpt: (§1) Two in vitro reconstructed human epidermis models were employed to assess the relative irritation potential of selected test samples, the Cytotoxicity Assay (MTT) and the Irritation Assay (IL-1α Release Assay), described below.
Irritation Assay (IL-1α Release Assay):
To document the skin irritation of Antiperspirant Active Ingredients, we have conducted in vitro experiments using 3D EpiDerm skin models (SIT-200 skin irritation model, MatTek Corporation, Ashland, Mass. 01721). In vitro skin samples were treated topically with the test compound for 1 hour in tissue culture incubator. Following the incubation, skin samples were washed with PBS and placed in a culture medium and continue to incubate for 24 hours. Cell culture media was collected for IL-1α release assay. Higher the IL-1a release means higher the irritation potential. IL-1α release was analyzed by ELISA assay kit (Invitrogen, Grand Island, N.Y. 14072) and (R&D Systems, Minneapolis, Minn. 55413).

[2] = test system: In vitro skin samples (MatTek EpiDerm); experiment: Cytotoxicity Assay (MTT), cell viability of reconstructed human epidermis; type: cell-based; details: for MTT (% cell viability): untreated Control = 100
Protocol: as §1
Cytotoxicity Assay (MTT):
Cell damage was evaluated by assessing mitochondrial metabolic activity using 3-[4,5-dimethylthiazol-2-yl]-2,5-diphenyltetrazolium bromide (MTT-reduction assay) upon exposure to the test sample. MTT solution was prepared as 1.0 mg/ml in Phosphate Buffered Saline (PBS) just before usage. In vitro skin samples (MatTek EpiDerm) were treated topically with the test sample for 1 hour in a tissue culture incubator. Following the incubation, skin samples were washed with PBS and placed in 24 well tissue culture plates, and 500 μl of the MTT solutions were added to each well and incubated at 37° C. for 2 hours. The cell survivability was analyzed by measuring the ability of the cell's mitochondria to reduce the colorless MTT to a colored formazan crystalline end product. The reaction was terminated by the removal of the MTT solution from the wells. Addition of 1.0 mL of 0.04M HCl in isopropanol to each well was used to dissolve the intracellular MTT formazan crystals. The contents of each well were mixed gently in an orbital shaker at room temperature for 1 hour and the absorbency at 570 nm was measured by an ELISA plate reader (SpectraMax M5 Multi-Mode Microplate Readers, Molecular Devices, California).

Compound | IL-1α (percentage compared to untreated tissue) ([1]; Example 3, formulated samples) | MTT (% cell viability) ([2]; Example 3, formulated samples) | IL-1α (percentage of the test value for the Control) ([1]; Example 1, topical treatment 1 hour, then 24 hours in culture medium) | IL-1α (percentage compared to untreated tissue) ([1]; Example 2, topical treatment 1 hour, then 24 hours in culture medium) | MTT (% cell viability) ([2]; Example 1, topical treatment 1 hour) | reduction of cell viability compared to untreated tissue (MTT) ([2]; Example 2) | MTT (% cell viability) ([2]; Example 2, topical treatment 1 hour)
O.O.O.O.O.O.[Al+3].[Cl-].[Cl-].[Cl-] [12% AlCl3, Aluminum Chloride Hexaaqua] | 234% | 99% | – | – | – | – | –
O.O.O.O.O.O.[Al+3].[Cl-].[Cl-].[Cl-] [14% AlCl3, Aluminum Chloride Hexaaqua] | – | – | 345% | 594% | 78% | 15-20% | 84%
